Data from patent US20200399250A1, “Pyrimidine Derivatives as Tropomyosin Receptor Kinase A (TRKA) Inhibitors” (BIOMED X GMBH, priority 2017, published 2020).
Entries after “also recorded” stand apart in the source; their conditions may differ.

Experiments:
Format in all cases: binding
TrkA [1] = target: T1, TrkA (Homo sapiens, UniProt P04629); test: KINOMEscan primary screen against TrkA; conditions: % of control; for % Ctrl. TrkA @10 nM: 10 nM compound; for % Ctrl. TrkA @100 nM: 100 nM compound
T1 sequence (P04629 33-796): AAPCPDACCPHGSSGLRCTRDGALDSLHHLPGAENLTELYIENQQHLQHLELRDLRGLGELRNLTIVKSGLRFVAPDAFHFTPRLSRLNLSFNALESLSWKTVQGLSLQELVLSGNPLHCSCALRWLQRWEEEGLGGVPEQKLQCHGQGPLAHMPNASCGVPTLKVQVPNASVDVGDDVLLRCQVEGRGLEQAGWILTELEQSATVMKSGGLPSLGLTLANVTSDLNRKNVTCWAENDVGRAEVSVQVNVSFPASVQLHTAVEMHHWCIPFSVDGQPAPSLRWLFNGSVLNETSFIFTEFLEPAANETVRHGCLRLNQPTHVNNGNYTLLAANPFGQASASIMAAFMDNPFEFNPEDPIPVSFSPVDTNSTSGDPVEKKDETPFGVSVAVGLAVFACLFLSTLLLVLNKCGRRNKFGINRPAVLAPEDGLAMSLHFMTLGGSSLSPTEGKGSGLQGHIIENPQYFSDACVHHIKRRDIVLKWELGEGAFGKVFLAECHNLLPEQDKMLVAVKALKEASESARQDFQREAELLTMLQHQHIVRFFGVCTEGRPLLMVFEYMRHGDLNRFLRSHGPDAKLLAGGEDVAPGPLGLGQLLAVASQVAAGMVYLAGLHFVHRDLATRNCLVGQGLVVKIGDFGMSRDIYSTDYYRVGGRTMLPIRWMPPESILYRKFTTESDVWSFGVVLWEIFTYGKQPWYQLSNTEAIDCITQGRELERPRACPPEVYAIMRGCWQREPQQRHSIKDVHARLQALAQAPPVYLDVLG
Method: (§1) Compounds were initially tested in a primary screen against TrkA (at 10 and 100 nM) and AurA (at 100 nM and 1 μM) using the KINOMEscan technology from DiscoverX Corporation, Fremont, Calif., USA (https://www.discoverx.com/services/drug-discovery-development-services/kinase-profiling/kinomescan).
Results were reported as % of control (% Ctrl.=(test compound signal−positive control signal)/(DMSO signal−positive control signal). KINOMEscan is an active site-directed competition binding assay that quantitatively measures the ability of a compound to compete with an immobilized, active-site directed ligand.

AurA [2] = target: T2, AurA (Homo sapiens, UniProt O14965); test: KINOMEscan primary screen against AurA; conditions: % of control; for % Ctrl. AurA @100 nM: 100 nM compound; for % Ctrl. AurA @1 μM: 1 μM compound
T2 sequence (O14965 1-403): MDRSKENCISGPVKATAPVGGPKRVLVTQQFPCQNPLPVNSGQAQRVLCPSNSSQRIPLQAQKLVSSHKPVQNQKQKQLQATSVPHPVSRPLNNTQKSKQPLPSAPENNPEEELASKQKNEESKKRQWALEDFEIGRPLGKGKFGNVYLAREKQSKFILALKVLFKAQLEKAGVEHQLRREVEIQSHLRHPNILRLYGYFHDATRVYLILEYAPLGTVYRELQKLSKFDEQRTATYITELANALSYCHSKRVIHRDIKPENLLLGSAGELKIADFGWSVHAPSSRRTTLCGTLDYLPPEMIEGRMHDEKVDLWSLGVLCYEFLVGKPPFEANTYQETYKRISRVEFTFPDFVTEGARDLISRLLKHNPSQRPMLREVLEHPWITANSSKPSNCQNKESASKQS
Method: as §1

AurA [3] = target: T2, AurA; test: KdELECT Kd measurement (KINOMEscan), AurA; conditions: for Kd: duplicate 11-point dose-response curves
Method: (§2) Kd measurements were done via the KdELECT product service from DiscoverX Corporation (Freemont, Calif., USA) which also employs the KINOMEscan technology. Here, inhibitor binding constants (Kd values) are calculated from duplicate 11-point dose-response curves.

TrkA [4] = target: T1, TrkA; test: KdELECT Kd measurement (KINOMEscan), TrkA; conditions: for Kd: duplicate 11-point dose-response curves
Method: as §2

TrkA [5] = test: KdELECT Kd measurement (KINOMEscan), TrkA; conditions: for ΔpKd: TrkA pKd versus AurA pKd
Method: as §2

panel of 97 kinases = test: Selectivity profiling, scanEDGE kinase panel (KINOMEscan); conditions: 100 nM, cut-off <35% ctrl; for # Hits: N = 92 non-mutant kinases; for Selectivity Score: inhibited kinases/tested kinases
Method: Selectivity profiling was done over a panel of 97 kinases at 100 nM concentration (scanEDGE assay panel from Discover X, which also uses the KINOMEscan technology, whereat KIT(D816V) and KIT (V559D, T6701) were replaced by TrkB and TrkC). […] The employed profiling panel consisted of the following kinases: ABL1(T3151)-phosphorylated, ABL1-nonphosphorylated, ABL1-phosphorylated, ACVR1B, ADCK3, AKT1, AKT2, ALK, AURKA, AURKB, AXL, BMPR2, BRAF, BRAF (V600E), BTK, CDK11, CDK2, CDK3, CDK7, CDK9, CHEK1, CSF1R, CSNK1D, CSNK1G2, DCAMKL1, DYRK1B, EGFR, EGFR (L858R), EPHA2, ERBB2, ERBB4, ERK1, FAK, FGFR2, FGFR3, FLT3, GSK3B, IGF1R, IKK-alpha, IKK-beta, INSR, JAK2 (JH1domain-catalytic), JAK3 (JH1domain-catalytic), JNK1, JNK2, JNK3, KIT, LKB1, MAP3K4, MAPKAPK2, MARK3, MEK1, MEK2, MET, MKNK1, MKNK2, MLK1, p38-alpha, p38-beta, PAK1, PAK2, PAK4, PCTK1, PDGFRA, PDGFRB, PDPK1, PIK3C2B, PIK3CA, PIK3CG, PIM1, PIM2, PIM3, PKAC-alpha, PLK1, PLK3, PLK4, PRKCE, RAF1, RET, RIOK2, ROCK2, RSK2 (Kin. Dom. 1-N-terminal), SNARK, SRC, SRPK3, TGFBR1, TIE2, TRKA, TRKB, TRKC, TSSK1B, TYK2 (JH1domain-catalytic), ULK2, VEGFR2, YANK3, ZAP70

Structure (SMILES)	% Ctrl. TrkA @10 nM (TrkA [1]) [% Ctrl.]	% Ctrl. TrkA @100 nM (TrkA [1]) [% Ctrl.]	% Ctrl. AurA @100 nM (AurA [2]) [% Ctrl.]	% Ctrl. AurA @1 μM (AurA [2]) [% Ctrl.]	AurA [pKd] (AurA [3])	Kd (AurA [3]) [nM]	TrkA [pKd] (TrkA [4])	Kd (TrkA [4]) [nM]	ΔpKd (TrkA [5])	ΔΔpKd (selectivity towards AurA compared to tozasertib) (TrkA [5]; compared to tozasertib)	# Hits (panel of 97 kinases)	List of inhibited kinases (panel of 97 kinases)	Selectivity Score (panel of 97 kinases)
Cc1ccc(C)c(CSc2nc(Nc3cc(C)[nH]n3)cc(N3CCN(C)CC3)n2)c1 [b2, 2-{[(2,5-dimethylphenyl)methyl]sulfanyl}-N-(5-methyl-1H-pyrazol-3-yl)-6-(4-methylpiperazin-1-yl)pyrimidin-4-amine]	93	31	54	9.4									
Cc1cccc(Sc2nc(Nc3cc(C)[nH]n3)cc(N3CCN(C)CC3)n2)c1 [b4, N-(5-methyl-1H-pyrazol-3-yl)-2-[(3-methylphenyl)sulfanyl]-6-(4-methylpiperazin-1-yl)pyrimidin-4-amine]	50	6.7	2.6	0.1									
CN1CCN(c2cc(Nc3cc(C(C)(C)C)[nH]n3)nc(Sc3ccccc3)n2)CC1 [a8, N-(5-tert-butyl-1H-pyrazol-3-yl)-6-(4-methylpiperazin-1-yl)-2-(phenylsulfanyl) pyrimidin-4-amine]	69	18	100	79									
Cc1cc(Nc2cc(N3CCN(C)CC3)nc(Sc3ccccc3)n2)n[nH]1 [Reference 2, N-(5-methyl-1H-pyrazol-3-yl)-6-(4-methylpiperazin-1-yl)-2-(phenylsulfanyl)-pyrimidin-4-amine, reference compound]	58	10	15	0.95	7.4	41	7.5	30	0.1	1			
Cc1ccc(Sc2nc(Nc3cc(C)[nH]n3)cc(N3CCN(C)CC3)n2)c(C)c1 [b9, 2-[(2,4-dimethylphenyl)sulfanyl]-N-(5-methyl-1H-pyrazol-3-yl)-6-(4-methylpiperazin-1-yl)pyrimidin-4-amine]	77	24	51	3.8									
Cc1cc(Nc2cc(N3CCN(C)CC3)nc(SCc3ccc(C)c(C)c3)n2)n[nH]1 [b3, 2-{[(3,4-dimethylphenyl)methyl]sulfanyl}-N-(5-methyl-1H-pyrazol-3-yl)-6-(4-methylpiperazin-1-yl)pyrimidin-4-amine]	53	11	46	4.5									
Cc1cc(Nc2cc(N3CCN(C)CC3)nc(Sc3ccc(NC(=O)C4CC4)cc3)n2)n[nH]1 [Tozasertib, N-[4-({4-[(5-methyl-1H-pyrazol-3-yl)amino]-6-(4-methylpiperazin-1-yl)pyrimidin-2-yl}sulfanyl)phenyl]cyclopropanecarboxamide, reference compound]	31	5.2									10	TrkA, ABL1, AurA, AurB, AXL,; also recorded: CK1d, FLT3, JAK2, PLK4, RET	
Cc1ccc(C)c(Sc2nc(Nc3cc(C)[nH]n3)cc(N3CCN(C)CC3)n2)c1 [b1, 2-[(2,5-dimethylphenyl)sulfanyl]-N-(5-methyl-1H-pyrazol-3-yl)-6-(4-methylpiperazin-1-yl)pyrimidin-4-amine]	80	11	7.3	0.5									
CN1CCN(c2cc(Nc3cc4ccccn4n3)nc(Sc3ccccc3)n2)CC1 [a3, 6-(4-methylpiperazin-1-yl)-2-(phenylsulfanyl)-N-(pyrazolo[1,5-a]pyridin-2-yl)pyrimidin-4-amine]	93	29	87	76									
Cc1cc(Nc2cc(N3CCN(C)CC3)nc(SCc3cccc4ccccc34)n2)n[nH]1 [b6, N-(5-methyl-1H-pyrazol-3-yl)-6-(4-methylpiperazin-1-yl)-2-[(naphthalen-1-ylmethyl)sulfanyl]pyrimidin-4-amine]	74	35	63	7.4									
Cc1cc(Nc2cc(N3CCN(C)CC3)nc(Sc3cccc(C(F)(F)F)c3)n2)n[nH]1 [b5, N-(5-methyl-1H-pyrazol-3-yl)-6-(4-methylpiperazin-1-yl)-2-{[3-(trifluoromethyl)phenyl]sulfanyl}pyrimidin-4-amine]	90	32	36	2.4									
Cc1ccc(CSc2nc(Nc3cc(C)[nH]n3)cc(N3CCN(C)CC3)n2)cc1 [b8, N-(5-methyl-1H-pyrazol-3-yl)-2-{[(4-methylphenyl)methyl]sulfanyl}-6-(4-methylpiperazin-1-yl)pyrimidin-4-amine]	35	5.3	30	1.3	7.3	53	8.4	3.8	1.1		17	TrkA, TrkB, TrkC, ABL1, AurA, and AXL, BTK, FGFR3, FLT3, JAK2, and JAK3, KDR, KIT, PLK4, RET, SRC, and TYK2	0.185
CN1CCN(c2cc(Nc3cc(C4CCCC4)[nH]n3)nc(Sc3ccccc3)n2)CC1 [a4, N-(5-cyclopentyl-1H-pyrazol-3-yl)-6-(4-methylpiperazin-1-yl)-2-(phenylsulfanyl)pyrimidin-4-amine]	15	0.95	49	4.5	7.0	93	8.8	1.5	1.8		19	TrkA, TrkB, TrkC, ABL1, AurA,; also recorded: AXL, FGFR2, FGFR3, FLT3, FMS,; also recorded: INSR, JAK2, JAK3, KIT, MAP2K2,; also recorded: MET, PDGFRb, RET, SRC	0.207
